{
  "source": "patent US6315907A",
  "about": "(priority 1997, dated 2001)",
  "tested_on": "TSST-1",
  "format": "binding, Staphylococcus aureus",
  "data": [
    {"compound": "CCCCCCCCN", "note": "[n-octylamine]", "values": [
      {"measurement": "adsorption ability for TSST-1", "value": "enhanced to a great extent"}
    ]}
  ]
}
